Experimental data as given in patent US12162896B2, “Salts and polymorphs of certain MCL-1 inhibitors” (Gilead Sciences, Inc., priority 2022, dated 2024).
Where a name gives a salt, the structure may show the parent alone.

Tests used:
MCL-1 = MCL-1 (Homo sapiens, UniProt Q07820); settings: stated in background, WO 2019/222112; cited from earlier work
[1] = Hygroscopicity by dynamic vapor sorption (DVS); type: physicochemical; settings: for hygroscopicity (DVS analysis, in words): 0% to 90% RH, about 25° C.; for water (moisture) absorbed by DVS: between 0% and 90% RH at about 25° C.
Method: (§1) Hygroscopicity was studied using dynamic vapor sorption (DVS, TA Q5000 SA, TA Instruments, New Castle, DE or DVS, DVS Intrinsic, Surface Measurement Systems, London, UK). A sample (2-20 mg) was placed in an aluminum DVS pan and loaded on the sample side of the twin pan balance. The water sorption and desorption were studied as a function of relative humidity (RH) at 25° C. In 10% RH increments, the relative humidity was increased from 40% RH to 90% RH and then decreased back to 0%, followed by repeating the full cycle from 0% RH up to 90% RH and back to 0% RH. […] Data analysis was performed using Universal Analysis 2000 Version 4.5A (TA Instruments, New Castle, DE) for TA DVS runs and Microsoft Excel for SMS DVS runs.

[2] = XRPD analysis of the sample post DVS (form change); type: physicochemical; settings: sample after DVS cycles at 25° C.
Method: X-ray powder diffraction (XRPD) analysis was conducted on a diffractometer (PANalytical XPERT-PRO, PANalytical B. V., Almelo, Netherlands) using copper radiation (Cu Kα, λ=1.541874). Samples were spread evenly on a zero-background sample plate. The generator was operated at a voltage of 45 kV and amperage of 40 mA. Slits were Soller 0.02 rad, antiscatter 1.0°, and divergence. Scans were performed from 2 to 40° 2−θ with a 0.0167 step size. Data analysis was performed using X'Pert Data Viewer V1.2d (PANalytical B.V., Almelo, Netherlands).
as §1

[3] = Competitive slurries of polymorph forms in EtOH; type: physicochemical; settings: for outcome of competitive slurry with Form I: in EtOH

Chain of MCL-1 (Q07820 whole entry, species assumed): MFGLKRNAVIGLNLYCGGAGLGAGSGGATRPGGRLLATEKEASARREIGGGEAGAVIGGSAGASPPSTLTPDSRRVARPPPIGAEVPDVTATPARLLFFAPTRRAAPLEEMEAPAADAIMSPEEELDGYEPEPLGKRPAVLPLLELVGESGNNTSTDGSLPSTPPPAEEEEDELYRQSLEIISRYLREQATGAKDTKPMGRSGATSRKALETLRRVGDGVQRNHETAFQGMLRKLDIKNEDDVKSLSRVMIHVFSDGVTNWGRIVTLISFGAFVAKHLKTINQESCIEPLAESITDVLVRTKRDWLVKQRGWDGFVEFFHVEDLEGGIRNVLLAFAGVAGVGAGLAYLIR

Row | SMILES | MCL-1 inhibition (in words) (MCL-1) | hygroscopicity (DVS analysis, in words) [1] | water (moisture) absorbed by DVS [1] | form change by XRPD post DVS [2] | outcome of competitive slurry with Form I [3] | relative stability versus other unsolvated/desolvated forms ([3]; competitive slurries in EtOH) | moisture rapidly absorbed at ambient conditions ([1]; ambient conditions)
1 | COc1nn(C)cc1C(=O)N[S@@]1(=O)=NC(=O)c2ccc3c(c2)N(C[C@@H]2CC[C@H]2[C@@H](OC)/C=C/C[C@H](C)C1)C[C@@]1(CCCc2cc(Cl)ccc21)CO3 [Compound 1] | effective MCL-1 inhibitor |  |  |  |  |  | 
2 | COc1nn(C)cc1C(=O)N[S@@]1(=O)=NC(=O)c2ccc3c(c2)N(C[C@@H]2CC[C@H]2[C@@H](OC)/C=C/C[C@H](C)C1)C[C@@]1(CCCc2cc(Cl)ccc21)CO3 [DEA Salt Form 1] |  | moderately hygroscopic | about 5.5 wt % | no form change |  |  | 
3 | COc1nn(C)cc1C(=O)N[S@@]1(=O)=NC(=O)c2ccc3c(c2)N(C[C@@H]2CC[C@H]2[C@@H](OC)/C=C/C[C@H](C)C1)C[C@@]1(CCCc2cc(Cl)ccc21)CO3 [Form III] |  | moderately hygroscopic | up to 5 wt % | no form change | full conversion to Form I |  | 
4 | COc1nn(C)cc1C(=O)N[S@@]1(=O)=NC(=O)c2ccc3c(c2)N(C[C@@H]2CC[C@H]2[C@@H](OC)/C=C/C[C@H](C)C1)C[C@@]1(CCCc2cc(Cl)ccc21)CO3 [Form II] |  | slightly hygroscopic | up to 1.1 wt % | no form change | full conversion to Form I |  | 
5 | COc1nn(C)cc1C(=O)N[S@@]1(=O)=NC(=O)c2ccc3c(c2)N(C[C@@H]2CC[C@H]2[C@@H](OC)/C=C/C[C@H](C)C1)C[C@@]1(CCCc2cc(Cl)ccc21)CO3 [Form IV] |  |  |  |  | full conversion to Form I |  | 
6 | COc1nn(C)cc1C(=O)N[S@@]1(=O)=NC(=O)c2ccc3c(c2)N(C[C@@H]2CC[C@H]2[C@@H](OC)/C=C/C[C@H](C)C1)C[C@@]1(CCCc2cc(Cl)ccc21)CO3 [Form I] |  | slightly hygroscopic | about 1.4 wt % | no form change |  | higher stability | 
7 | COc1nn(C)cc1C(=O)N[S@@]1(=O)=NC(=O)c2ccc3c(c2)N(C[C@@H]2CC[C@H]2[C@@H](OC)/C=C/C[C@H](C)C1)C[C@@]1(CCCc2cc(Cl)ccc21)CO3 [K Salt Form 1] |  | moderately hygroscopic | about 11 wt % | no form change |  |  | 4-6 wt %
8 | COc1nn(C)cc1C(=O)N[S@@]1(=O)=NC(=O)c2ccc3c(c2)N(C[C@@H]2CC[C@H]2[C@@H](OC)/C=C/C[C@H](C)C1)C[C@@]1(CCCc2cc(Cl)ccc21)CO3 [Na salt Form 1] |  | moderately hygroscopic | about 7.5 wt % | no form change |  |  | 
